Measured values from publication PMC11554998, “Machine learning-aided search for ligands of P2Y6 and other P2Y receptors” (Purinergic Signalling, 2024).

Tests used:
P2Y14 receptor (hP2Y14R) = target: T1, P2Y14 receptor (hP2Y14R) (Homo sapiens, UniProt Q15391); test: competitive binding vs fluorescent antagonist MRS4174, whole CHO-hP2Y14R cells, flow cytometry; single concentration […]; assay type: cell-based; settings: read-out: P2Y14, % inhibition at 100 μM (n = 3)
T1 construct: gene P2RY14
T1 sequence (Q15391 1-338): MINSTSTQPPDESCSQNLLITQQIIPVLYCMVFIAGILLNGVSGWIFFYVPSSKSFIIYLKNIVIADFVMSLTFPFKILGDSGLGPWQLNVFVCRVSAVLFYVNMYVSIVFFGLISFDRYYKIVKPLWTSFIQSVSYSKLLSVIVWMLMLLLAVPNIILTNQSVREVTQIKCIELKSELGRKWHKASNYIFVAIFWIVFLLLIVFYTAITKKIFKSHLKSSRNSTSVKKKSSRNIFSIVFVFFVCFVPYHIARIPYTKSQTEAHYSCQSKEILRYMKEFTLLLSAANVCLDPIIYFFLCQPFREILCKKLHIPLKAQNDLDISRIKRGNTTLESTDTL

P2Y6 receptor (hP2Y6R) = target: T2, P2Y6 receptor (hP2Y6R) (Homo sapiens, UniProt Q15077); test: FLIPR calcium mobilization, inhibition of UDP ([…]) response in […]1-hP2Y6R cells; assay type: cell-based; settings: read-out: P2Y6R, mean IC50 ± SEM (μM) or % inhibition at 400 μM^a
T2 construct: gene P2RY6
T2 sequence (Q15077 whole entry): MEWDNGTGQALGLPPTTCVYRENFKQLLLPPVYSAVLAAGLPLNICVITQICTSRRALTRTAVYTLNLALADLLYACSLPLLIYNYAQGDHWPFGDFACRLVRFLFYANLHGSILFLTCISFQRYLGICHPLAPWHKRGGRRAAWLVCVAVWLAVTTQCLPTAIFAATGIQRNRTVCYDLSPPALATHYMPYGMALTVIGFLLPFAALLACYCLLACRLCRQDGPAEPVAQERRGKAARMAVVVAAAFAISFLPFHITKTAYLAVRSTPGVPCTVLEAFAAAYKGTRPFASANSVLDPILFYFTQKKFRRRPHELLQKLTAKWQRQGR

inhibition at 100 µM (P2Y14 receptor (hP2Y14R)) [%] | IC50 (P2Y6 receptor (hP2Y6R)) [µM] | SMILES
50 ± 4 | – | Cc1cc(C(=O)Nc2cc(Oc3ccc4nc(NC(=O)C5CC5)cn4n3)ccc2C)n(C)n1 [TAK-593]
– | 75.7 ± 11.5 | CCNC(=O)c1cc2c(-c3cc(C(C)(C)O)ccc3Oc3c(C)cc(F)cc3C)cn(C)c(=O)c2[nH]1 [ABBV-744]
– | 574 ± 181 | COc1cccc([C@@H](Oc2ccc3c(cnn3-c3ccc(F)cc3)c2)[C@H](C)NC(=O)C(F)(F)F)c1 [AZD5423]
